Test results as given in ChEMBL document CHEMBL1156408, “Parasitenone, a new epoxycyclohexenone related to gabosine from the marine-derived fungus Aspergillus parasiticus” (J Nat Prod, 2002).

Assays:
Format in all cases: functional
[1] = system: Radical scavenging activity; assay: Antioxidant activity assessed as DPPH free radical scavenging activity
[2] = Antioxidant activity assessed as peroxy nitrite free radical scavenging activity
[3] = Antioxidant activity assessed as nitric oxide radical scavenging activity
[4] = Antioxidant activity assessed as superoxide radical scavenging activity

Compound | IC50 [1] | IC50 [2] | IC50 [3] | IC50 [4]
OCc1cc(O)c(O)c(Cl)c1 | 0.6 µM | 3.1 µM | 0.5 µM | 11 µM
O=C1C=C(CO)[C@H](O)[C@@H]2O[C@H]12 [PARASITENONE] | 57 µM | 52.6 µM |  | 
OCc1cc(O)ccc1O [GENTISYL ALCOHOL] | 1.4 µM | 2.2 µM | 0.4 µM | > 50 µM
CC1(C)N([O])C(c2ccc(C(=O)O)cc2)=[N+]([O-])C1(C)C |  |  | 138 µM | 
